Measured values: ChEMBL document CHEMBL1131657, “Syntheses and kinetic evaluation of hydroxamate-based peptide inhibitors of glyoxalase I” (Bioorg Med Chem Lett, 1998)
Values joined by “and” are separate entries in the source; they are usually repeats but may differ in a detail not shown here. Equal values may be shown once. *1 amine or outer side, *2 acyl side, *3 side chain or, on linkers, in order; H or OH if unused. Where a SMILES comes first, the peptide text is derived from it. The star is where a group is joined. γGlu = O=C(O)[CH](CCC(=O)[*:2])N[*:1]; NHOH = ON*

Columns and labels:
A498 = experiment: Antitumor activity was evaluated for reduction of growth of renal cancer (A498) cells at a concentration of 100 uM; assay type: functional, Homo sapiens
Plasmodium falciparum [1] = experiment: Antimalarial activity against Plasmodium falciparum D6 (Sierra Leone); moderate activity; assay type: functional, organism-based
Plasmodium falciparum [2] = experiment: Antimalarial activity against Plasmodium falciparum W2 Indochina; moderate activity; assay type: functional, organism-based
SNB-75 [3] = experiment: Antitumor activity was evaluated for reduction of growth of SNB-75 cancer cells at a concentration of 100 uM; assay type: functional, Homo sapiens
HL-60 = experiment: Antitumor activity was evaluated for reduction of growth of leukemia(HL-60 (TB)) cancer cells at a concentration of 100 uM; assay type: functional, Homo sapiens
[4] = Antitumor activity was evaluated for reduction of growth of non-small cell lung (NCL-H522) cancer cells at a concentration of 100 uM; assay type: functional, Homo sapiens, Cancer cell lines
SNB-75 [5] = experiment: Antitumor activity was evaluated for reduction of growth of CNS cancer (SNB-75)cells at a concentration of 100 uM; assay type: functional, Homo sapiens

Structure (SMILES)	Reduction (A498)	Activity (Plasmodium falciparum [1])	Activity (Plasmodium falciparum [2])	Reduction (SNB-75 [3])	Reduction (HL-60)	Reduction [4]	Reduction (SNB-75 [5])
CCOC(=O)CNC(=O)C(CCC(=O)NO)NC(=O)CCC(N)C(=O)O (stereo not given) (γGlu-Glu(NHOH)-Gly-OEt; configuration not given here)	31%						
CN(O)C(=O)CCC(NC(=O)CCC(N)C(=O)O)C(=O)NCC(=O)O (stereo not given)		Poor or moderate activity	Poor or moderate activity	40%			
NC(CCC(=O)NC(CCC(=O)NO)C(=O)NCC(=O)O)C(=O)O (stereo not given) (γGlu-Glu(NHOH)-Gly-OH; configuration not given here)	34% and 31%	Poor or moderate activity	Poor or moderate activity		46%	38%	31%
